According to US20240366813A1, “PEPTIDE-UREA DERIVATIVE, PHARMACEUTICAL COMPOSITION CONTAINING SAME AND APPLICATION THEREOF” (Bivision Pharmaceuticals, Inc., priority 0001, published 2024):
“And” between values parts separate entries of the source, which are not always exact repeats. Equal entries are not always repeated.

Legend:
[1] = system: PSMA-positive cells LNCap; experiment: Uptake of labeled compounds by PSMA-positive cells LNCap; format: cell-based; conditions: 37° C., 0.5 h
Description: LNCap cells (Shangcheng Beina Chuanglian Biotechnology Co., Ltd., Industrial Park, Chengguan Town, Shangcheng County, Xinyang City, Henan Province) were revived and passaged for expansion. After the cells were expanded to a sufficient amount, cells were seeded in a 24-well plate at a density of 1×10^4 cells/well. Uptake tests were performed when cells grew to 80%-90% confluence.
The above labeled compounds ^177Lu-E1, ^177Lu-E2, ^177Lu-E3, ^177Lu-E5, ^177Lu-E9, ^177Lu-E14 and ^177Lu-PSMA-617 were diluted with serum-free medium into 10000, 1000, 100, 10, 1, 0.1 and 0 nM. 1 mL of the diluted solution was added to a 24-well plate, and incubated at 37° C. for 0.5 h. The supernatant was discarded and the cells were washed 3 times with PBS. 250 μL of 1M NaOH solution was added to each well. The cells were pipetted until they were completely dissolved, and transferred to a scintillation vial. 250 μL of NaOH solution was added to each well again to wash the bottom of the well and transferred to a scintillation vial. 2 mL of scintillation fluid was added to each scintillation vial and shaken well. A liquid scintillation counter was used to detect radioactive counts in each vial.

[2] = In vivo metabolism test of 177Lu-labeled complex in SD rats (plasma radioactive counts); conditions: for plasma radioactive counts: individual rat, 100 μL plasma; for plasma radioactive counts, MEAN: mean of rats
Description: Eighteen SD rats (Hangzhou Ziyuan Experimental Animal Technology Co., Ltd.), male, weighing 180-200 g, were randomly divided into 6 groups, 3 rats in each group. […] of the labeled precursor compound was injected into the tail vein of each mouse. 250 μL of orbital blood was collected into anticoagulant tubes at 5 min, 0.5 h, 1 h, 2 h, 4 h, 8 h and 24 h after administration. Blood was centrifuged at 3000 rpm for 10 min, and 100 μL of plasma was taken into scintillation vials. 2 mL of scintillation fluid was added to each scintillation vial and shaken well. A liquid scintillation counter was used to detect radioactive counts in each vial.

[3] = system: LNCaP PSMA-positive tumors; experiment: SPECT imaging in mice carrying LNCaP PSMA-positive tumors; format: in vivo; conditions: 100 μCi tail vein
Description: 100 μCi of ^177Lu-labeled ^177Lu-E3 and ^177Lu-PSMA-617 were injected into mice carrying LNCaP PSMA-positive tumors (Jiangsu Huajing Molecular Imaging and Drug Research Institute Co., Ltd.) through the tail vein respectively. Mice were anesthetized with 2% isoflurane/98% oxygen for SPECT image contrast study.

22rv1 xenograft tumor = experiment: Pharmacodynamic study in 22rv1 mouse xenograft tumor model (effect example 11); format: in vivo, mice; conditions: over the two dose groups
[4] = 5 min after tail vein injection
[5] = 0.5 h after tail vein injection

O=C([O-])CN1CCN(CC(=O)[O-])CCN(CC(=O)N2CCC3(CCC(C(=O)NC(Cc4ccc5ccccc5c4)C(=O)NCCCCC(NC(=O)NC(CCC(=O)O)C(=O)O)C(=O)O)CC3)CC2)CCN(CC(=O)[O-])CC1.[177Lu+3] (centres unmarked) [^177Lu-E9]
uptake by LNCap cells ([1]; 0.1 nM): 56 cpm | uptake by LNCap cells ([1]; 1 nM): 55 cpm | uptake by LNCap cells ([1]; 10 nM): 84 cpm | uptake by LNCap cells ([1]; 100 nM): 140 cpm | uptake by LNCap cells ([1]; 1000 nM): 405 cpm | uptake by LNCap cells ([1]; 10000 nM): 1194 cpm | plasma radioactive counts [2, 4]: 30764 cpm and 38134 cpm and 30001 cpm | plasma radioactive counts [2, 5]: 10391 cpm and 12249 cpm and 8575 cpm | plasma radioactive counts ([2]; 1 h after tail vein injection): 4483 cpm and 4139 cpm and 2519 cpm | plasma radioactive counts ([2]; 2 h after tail vein injection): 892 cpm and 652 cpm and 346 cpm | plasma radioactive counts ([2]; 4 h after tail vein injection): 210 cpm and 196 cpm and 197 cpm | plasma radioactive counts ([2]; 8 h after tail vein injection): 171 cpm and 184 cpm and 161 cpm | plasma radioactive counts ([2]; 24 h after tail vein injection): 164 cpm and 162 cpm and 183 cpm | plasma radioactive counts, MEAN [2, 4]: 32966 cpm | plasma radioactive counts, MEAN [2, 5]: 10405 cpm | plasma radioactive counts, MEAN ([2]; 1 h after tail vein injection): 3714 cpm | plasma radioactive counts, MEAN ([2]; 2 h after tail vein injection): 630 cpm | plasma radioactive counts, MEAN ([2]; 4 h after tail vein injection): 201 cpm | plasma radioactive counts, MEAN ([2]; 8 h after tail vein injection): 172 cpm | plasma radioactive counts, MEAN ([2]; 24 h after tail vein injection): 170 cpm

O=C([O-])CN1CCN(CC(=O)[O-])CCN(CC(=O)NC23CC(C(=O)NC(Cc4ccc5ccccc5c4)C(=O)NCCCCC(NC(=O)NC(CCC(=O)O)C(=O)O)C(=O)O)(C2)C3)CCN(CC(=O)[O-])CC1.[177Lu+3] (centres unmarked) [^177Lu-E14]
uptake by LNCap cells ([1]; 0.1 nM): 28 cpm | uptake by LNCap cells ([1]; 1 nM): 82 cpm | uptake by LNCap cells ([1]; 10 nM): 220 cpm | uptake by LNCap cells ([1]; 100 nM): 345 cpm | uptake by LNCap cells ([1]; 1000 nM): 479 cpm | uptake by LNCap cells ([1]; 10000 nM): 362 cpm | plasma radioactive counts [2, 4]: 42150 cpm and 41058 cpm and 45756 cpm | plasma radioactive counts [2, 5]: 18047 cpm and 18268 cpm and 18614 cpm | plasma radioactive counts ([2]; 1 h after tail vein injection): 7200 cpm and 6304 cpm and 6154 cpm | plasma radioactive counts ([2]; 2 h after tail vein injection): 1415 cpm and 1686 cpm and 1863 cpm | plasma radioactive counts ([2]; 4 h after tail vein injection): 203 cpm and 198 cpm and 259 cpm | plasma radioactive counts ([2]; 8 h after tail vein injection): 201 cpm and 206 cpm and 203 cpm | plasma radioactive counts ([2]; 24 h after tail vein injection): 196 cpm and 175 cpm and 159 cpm | plasma radioactive counts, MEAN [2, 4]: 42988 cpm | plasma radioactive counts, MEAN [2, 5]: 18310 cpm | plasma radioactive counts, MEAN ([2]; 1 h after tail vein injection): 6553 cpm | plasma radioactive counts, MEAN ([2]; 2 h after tail vein injection): 1655 cpm | plasma radioactive counts, MEAN ([2]; 4 h after tail vein injection): 220 cpm | plasma radioactive counts, MEAN ([2]; 8 h after tail vein injection): 203 cpm | plasma radioactive counts, MEAN ([2]; 24 h after tail vein injection): 177 cpm

O=C([O-])CN1CCN(CC(=O)[O-])CCN(CC(=O)NCC2CCC(C(=O)N[C@@H](Cc3ccc4ccccc4c3)C(=O)NCCCC[C@H](NC(=O)N[C@@H](CCC(=O)O)C(=O)O)C(=O)O)CC2)CCN(CC(=O)[O-])CC1.[177Lu+3] (some centres unmarked) [^177Lu-PSMA-617, reference compound]
uptake by LNCap cells ([1]; 0.1 nM): 49 cpm | uptake by LNCap cells ([1]; 1 nM): 67 cpm | uptake by LNCap cells ([1]; 10 nM): 225 cpm | uptake by LNCap cells ([1]; 100 nM): 389 cpm | uptake by LNCap cells ([1]; 1000 nM): 599 cpm | uptake by LNCap cells ([1]; 10000 nM): 1625 cpm | plasma radioactive counts [2, 4]: 24449 cpm and 23276 cpm and 22010 cpm | plasma radioactive counts [2, 5]: 9783 cpm and 13738 cpm and 14589 cpm | plasma radioactive counts ([2]; 1 h after tail vein injection): 3865 cpm and 6988 cpm and 7736 cpm | plasma radioactive counts ([2]; 2 h after tail vein injection): 679 cpm and 1346 cpm and 1544 cpm | plasma radioactive counts ([2]; 4 h after tail vein injection): 207 cpm and 219 cpm and 225 cpm | plasma radioactive counts ([2]; 8 h after tail vein injection): 188 cpm and 187 cpm and 170 cpm | plasma radioactive counts ([2]; 24 h after tail vein injection): 173 cpm and 176 cpm and 178 cpm | plasma radioactive counts, MEAN [2, 4]: 23245 cpm | plasma radioactive counts, MEAN [2, 5]: 12703 cpm | plasma radioactive counts, MEAN ([2]; 1 h after tail vein injection): 6196 cpm | plasma radioactive counts, MEAN ([2]; 2 h after tail vein injection): 1190 cpm | plasma radioactive counts, MEAN ([2]; 4 h after tail vein injection): 217 cpm | plasma radioactive counts, MEAN ([2]; 8 h after tail vein injection): 182 cpm | plasma radioactive counts, MEAN ([2]; 24 h after tail vein injection): 176 cpm | Heart, Averaged ([3]; 1 h): 1.59 % ID/cc | Kidney, Averaged ([3]; 1 h): 58.17 % ID/cc | Liver, Averaged ([3]; 1 h): 1.61 % ID/cc | Lung, Averaged ([3]; 1 h): 3.30 % ID/cc | Tumor, Averaged ([3]; 1 h): 19.42 % ID/cc | Heart, Averaged ([3]; 4 h): 1.47 % ID/cc | Kidney, Averaged ([3]; 4 h): 8.37 % ID/cc | Liver, Averaged ([3]; 4 h): 1.27 % ID/cc | Lung, Averaged ([3]; 4 h): 1.54 % ID/cc | Tumor, Averaged ([3]; 4 h): 10.68 % ID/cc | Heart, Averaged ([3]; 8 h): 0.53 % ID/cc | Kidney, Averaged ([3]; 8 h): 4.35 % ID/cc | Liver, Averaged ([3]; 8 h): 1.04 % ID/cc | Lung, Averaged ([3]; 8 h): 0.86 % ID/cc | Tumor, Averaged ([3]; 8 h): 9.4 % ID/cc | Heart, Averaged ([3]; 1 d): 1.45 % ID/cc | Kidney, Averaged ([3]; 1 d): 1.16 % ID/cc | Liver, Averaged ([3]; 1 d): 1.43 % ID/cc | Lung, Averaged ([3]; 1 d): 0.85 % ID/cc | Tumor, Averaged ([3]; 1 d): 2.19 % ID/cc | Heart, Averaged ([3]; 3 d): 0.46 % ID/cc | Kidney, Averaged ([3]; 3 d): 1.55 % ID/cc | Liver, Averaged ([3]; 3 d): 0.96 % ID/cc | Lung, Averaged ([3]; 3 d): 3.74 % ID/cc | Tumor, Averaged ([3]; 3 d): 4.76 % ID/cc | tumor growth inhibition rate (22rv1 xenograft tumor): 15-21%
